Experimental data as given in PubChem BioAssay (NCI).
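48-hour exposure; five concentrations; linearly interpolated endpoints. Here, GI50 denotes the concentration required for 50% inhibition of growth. TGI denotes the concentration required for complete inhibition of growth.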

What was measured:
Assay in all cases: growth of human tumour cells (NCI), 48 h
[1] = tested on: EKVX NSCLC
[2] = tested on: DU-145 prostate
[3] = tested on: RPMI-8226 leukemia
[4] = tested on: NCI/ADR-RES ovarian
[5] = tested on: SK-MEL-2 melanoma
[6] = tested on: OVCAR-3 ovarian
[7] = tested on: IGROV1 ovarian
[8] = tested on: OVCAR-4 ovarian

Row | Structure (SMILES) | GI50 [1] [µM] | TGI [1] [µM] | GI50 [2] [µM] | TGI [2] [µM] | GI50 [3] [µM] | TGI [3] [µM] | GI50 [4] [µM] | TGI [4] [µM] | GI50 [5] [µM] | TGI [5] [µM] | GI50 [6] [µM] | TGI [6] [µM] | GI50 [7] [µM] | TGI [7] [µM] | GI50 [8] [µM] | TGI [8] [µM]
1 | OC(c1cc(-c2cccc(Cl)c2)nc2ccccc12)C1CCCCN1 (stereo not drawn) | 1.45 | 2.94 | 1.76 | 3.15 | 2.68 | 6.45 | 1.99 | 4.02 | 2.18 | 4.02 | 1.81 | 3.21 | 1.69 | 3.21 | – | –
2 | Cc1cc(Cl)cc2c(N=Nc3ccc(S(N)(=O)=O)cc3)c(O)[nH]c12 | > 25 | > 25 | > 25 | > 25 | > 25 | > 25 | > 25 | > 25 | > 25 | > 25 | > 25 | > 25 | > 25 | > 25 | > 25 | > 25
3 | CSC1=Nc2c(c(C)c(-c3ccccc3)n2CCCN2CCCCC2)C2=NC(=O)C[C@H](C)N12 | 3.06 | > 44.7 | 4.01 | > 52.4 | 0.505 | 2.25 | 20 | 79.1 | 2.14 | 5.26 | 2.55 | 11 | 2.25 | 13.5 | 3.21 | 37.7
4 | COc1cc2nccc(Oc3ccc(NC(=O)NC4CC4)c(Cl)c3)c2cc1C(N)=O | 26.1 | > 100 | 21.6 | > 100 | 22.4 | > 100 | 35.2 | > 100 | 19.1 | 48.6 | 23.1 | > 100 | 30.6 | > 100 | 12.2 | > 100
5 | NS(=O)(=O)OCC1OC(n2cnc3cncnc32)C(O)C1O (stereo not drawn) | 0.064 | 0.647 | 0.0178 | 0.132 | 0.0333 | 0.147 | 0.0103 | 0.0503 | 0.0351 | 0.133 | 0.035 | 0.297 | 0.0541 | 0.304 | 0.0103 | 0.0745
6 | CN1CCC(COc2cnc(-c3cccc(Cn4nc(-c5cccc(C#N)c5)ccc4=O)c3)nc2)CC1 | 9.45 | 40 | 4.76 | 30.5 | 2.64 | 9.21 | 7.41 | 28.1 | 6.66 | 15.1 | 2.45 | 6.06 | 6.8 | 25.2 | 2 | 5.32
7 | Cn1cc(C2=C(c3ccccc3[N+](=O)[O-])C(=O)NC2=O)c2ccccc21 | – | – | 6.13 | > 25 | 5.93 | 15.2 | 6.32 | > 21.6 | 2.92 | 9.55 | 2.32 | > 21.8 | 6.9 | > 19.5 | 4.88 | 24.5
8 | Nc1c(C(=O)c2ccc(-c3cccnc3)cc2)cnn1-c1ccc(F)cc1 | – | – | > 25 | > 25 | > 17.5 | > 25 | > 19.5 | > 25 | > 25 | > 25 | > 22.8 | > 25 | 24.3 | > 25 | 8.41 | > 24
9 | C=CCC(N[C@@H](CO)c1ccccc1)c1cn(Cc2ccccc2Cl)c(=O)n(Cc2ccccc2Cl)c1=O (stereo partly drawn) | > 100 | > 100 | > 100 | > 100 | 55.8 | > 100 | > 100 | > 100 | > 100 | > 100 | > 100 | > 100 | – | – | > 100 | > 100
10 | CN(C)c1ccc(/C=C/c2ccnc3c(O)cccc23)cc1 | – | – | 0.626 | > 100 | 0.482 | > 100 | 0.312 | – | 0.301 | 11 | 0.462 | > 100 | 0.389 | > 100 | 0.404 | > 100
11 | O=C(O)/C=C/C(=O)N1Cc2cc3ccccc3nc2C1 | – | > 100 | – | > 100 | – | > 100 | – | > 100 | – | > 100 | – | > 100 | – | > 100 | – | –
12 | C[n+]1c(/C=C/c2c[nH]c3ccccc23)ccc2ccccc21 | – | – | 10.1 | 22.7 | 5.63 | 28.2 | > 100 | > 100 | 16.1 | 30.6 | 7.07 | 26.7 | 11 | 39.4 | 7.07 | 37.1
13 | CCOC(=O)c1ccc2c(c1)Cc1cc([N+](=O)[O-])ccc1-2 | – | 50.6 | – | > 100 | – | > 100 | – | 99.4 | – | – | – | > 100 | – | > 100 | – | 56
14 | COc1ccc2sc3cccc(NCCN(C)C)c3c(=O)c2c1 | – | – | 4.02 | 13.5 | 2.22 | 5.16 | 2.98 | 11.3 | – | – | 4.65 | 16.5 | 3.35 | 11.6 | 3.72 | 16.5
15 | CC(C)N1CC2CN(Cc3ccccc3)CC(C1)C2=O | – | – | – | > 100 | – | > 100 | – | > 100 | – | > 100 | – | > 100 | – | > 100 | – | > 100
16 | O=C(/C=C/c1ccco1)c1cc(F)c(Cl)cc1Cl | 17.1 | 37.3 | 19.9 | 44.1 | 13.8 | 39.9 | – | – | 18.1 | 34.6 | 21.4 | 60.4 | 17.2 | 41 | 22 | 72.3
17 | COc1cc(/C=C2\C[C@H]3[C@@H]4CC=C5C[C@@H](O)CC[C@]5(C)[C@H]4CC[C@]3(C)[C@H]2O)ccc1OCCN1CCCC1 | 0.104 | 7.38 | 5.04 | 14.4 | 5.53 | 25.5 | 12.6 | 34.7 | 16.4 | > 50 | 15.4 | 32 | 17.5 | > 50 | – | –
18 | C=C1CC2CCCC12C=O (stereo not drawn) | – | – | – | > 10 | – | > 10 | – | > 10 | – | – | – | > 10 | – | > 10 | – | > 10
19 | Nc1cc(F)ccc1CC(=O)O | – | > 100 | – | > 100 | – | > 100 | – | > 100 | – | > 100 | – | – | – | > 100 | – | –
20 | C[C@]12CCc3nc(Nc4cccc(O)c4)sc3C1=CC[C@@H]1[C@@H]2CC[C@]2(C)/C(=N\NC(N)=S)CC[C@@H]12 | 2.74 | 9.26 | – | – | – | – | 3.07 | > 100 | 2.32 | 7.36 | 1.4 | 2.87 | 2.31 | 6.25 | – | –
21 | O=C1/C(=C\c2ccc(F)cc2)CN(C(=O)c2ccccc2)C/C1=C\c1ccc(F)cc1 | – | – | – | – | 0.296 | 1.17 | 4.14 | > 100 | 4.44 | 19.5 | – | – | 3.33 | 10.7 | 1.84 | 18.1
22 | CCOC(=O)c1ccc(Nc2sc(C(=O)c3ccc(Br)cc3)c(N)c2C#N)cc1 | – | – | 1.8 | > 100 | 2.57 | > 72.3 | 0.842 | > 100 | 1.27 | > 100 | 0.364 | 2.19 | – | > 100 | – | > 100
23 | CO/C=C/C(=O)c1cc2cnc3c(=N)cc(NC(=O)C(C)C)c([nH]1)c23 | – | – | 0.0864 | 6.35 | 0.0149 | 0.0906 | – | – | 0.0907 | 0.299 | 0.0418 | 0.353 | 0.0187 | 0.138 | 0.0637 | 0.746
24 | O=C(COc1ccc(/C=C2\COc3ccccc3C2=O)cc1)Nc1nccs1 | 22.4 | 76.3 | 4.8 | 14.8 | 2.25 | 6.28 | 24.7 | > 100 | 10.8 | 24 | 2.73 | 5.81 | – | – | 20.5 | 68.5
25 | CCOC(=O)C1=C(C)N=c2s/c(=C\c3ccccc3O)c(=O)n2C1c1ccc(OC)c2ccccc12 (stereo not drawn) | – | – | 8.3 | 32 | 5.39 | 31.2 | 7.92 | 43.5 | 32.3 | 87.1 | 3.04 | 7.83 | 21.4 | 75 | 2.01 | 5.18
